In patent US20250236639A1, “NEUROACTIVE STEROIDS AND COMPOSITIONS THEREOF” (Sage Therapeutics, Inc., priority 2019, published 2025):

Target: GABAA receptor
Assay: Steroid inhibition of [35S]-TBPS binding, rat brain cortical membranes
Conditions: 3 nM [35S]-TBPS, in the presence of 5 mM GABA
Description: [^35S]-t-Butylbicyclophosphorothionate (TBPS) binding assays using rat brain cortical membranes in the presence of 5 mM GABA has been described (Gee et al, J. Pharmacol. Exp. Ther. 1987, 241, 346-353; Hawkinson et al, Mol. Pharmacol. 1994, 46, 977-985; Lewin, A. H et al., Mol. Pharmacol. 1989, 35, 189-194).
Briefly, cortices are rapidly removed following decapitation of carbon dioxide-anesthetized Sprague-Dawley rats (200-250 g). The cortices are homogenized in 10 volumes of ice-cold 0.32 M sucrose using a glass/teflon homogenizer and centrifuged at 1500×g for 10 min at 4° C. The resultant supernatants are centrifuged at 10,000×g for 20 min at 4° C. to obtain the P2 pellets. The P2 pellets are resuspended in 200 mM NaCl/50 mM Na—K phosphate pH 7.4 buffer and centrifuged at 10,000×g for 10 min at 4° C. This washing procedure is repeated twice and the pellets are resuspended in 10 volumes of buffer. Aliquots ([…]) of the membrane suspensions are incubated with 3 nM [^35S]-TBPS and […] aliquots of test drug dissolved in dimethyl sulfoxide (DMSO) (final 0.5%) in the presence of 5 mM GABA. The incubation is brought to a final volume of 1.0 mL with buffer. Nonspecific binding is determined in the presence of […] and ranged from 15 to 25%. Following a 90 min incubation at room temp, the assays are terminated by filtration through glass fiber filters (Schleicher and Schuell No. 32) using a cell harvester (Brandel) and rinsed three times with ice-cold buffer. Filter bound radioactivity is measured by liquid scintillation spectrometry. Non-linear curve fitting of the overall data for each drug averaged for each concentration is done using Prism (GraphPad). […] The concentration of test compound producing 50% inhibition (IC50) of specific binding and the maximal extent of inhibition (Imax) are determined for the individual experiments with the same model used for the overall data and then the means±SEM.s of the individual experiments are calculated.
Various compounds are or can be screened to determine their potential as modulators of [^35S]-TBPS binding in vitro. These assays are or can be performed in accordance with the above

Compound	IC50 [nM]
C[C@@]1(O)CC[C@H]2[C@H](CC[C@@H]3[C@@H]2CC[C@]2(C)[C@@H](C4(Cn5cc(C#N)cn5)COC4)CC[C@@H]32)C1 [Compound 28, 1-((3-((3R,5R,8R,9R,10S,13S,14S,17S)-3-hydroxy-3,13-dimethylhexadecahydro-1H-cyclopenta[a]phenanthren-17-yl)oxetan-3-yl)methyl)-1H-pyrazole-4-carbonitrile]	< 100
C[C@@]1(O)CC[C@H]2[C@H](CC[C@@H]3[C@@H]2CC[C@]2(C)[C@@H](C(F)(F)Cn4cc(C#N)cn4)CC[C@@H]32)C1 [Compound 21, 1-(2,2-difluoro-2-((3R,5R,8R,9R,10S,13S,14S,17S)-3-hydroxy-3,13-dimethylhexadecahydro-1H-cyclopenta[a]phenanthren-17-yl)ethyl)-1H-pyrazole-4-carbonitrile]	< 100
C[C@@]1(O)CC[C@H]2[C@H](CC[C@@H]3[C@@H]2CC[C@@]2(C)[C@H]3[C@H](C3CC3)C[C@@H]2[C@](C)(O)Cn2cc(C#N)cn2)C1 [Compound 47, 1-((S)-2-((3R,5R,8R,9R,10S,13S,14S,15S,17S)-15-cyclopropyl-3-hydroxy-3,13-dimethylhexadecahydro-1H-cyclopenta[a]phenanthren-17-yl)-2-hydroxypropyl)-1H-pyrazole-4-carbonitrile]	< 100
CCC[C@@]1(O)CC[C@@]2(C)[C@H](CC[C@@H]3[C@@H]2CC[C@@]2(C)[C@H]3CC[C@@H]2[C@@](C)(O)Cn2cc(C#N)cn2)C1 [Compound 27, 1-((R)-2-hydroxy-2-((3R,5R,8R,9S,10S,13S,14S,17S)-3-hydroxy-10,13-dimethyl-3-propylhexadecahydro-1H-cyclopenta[a]phenanthren-17-yl)propyl)-1H-pyrazole-4-carbonitrile]	100 to 1000
COC[C@@]1(O)CC[C@H]2[C@@H](CC[C@@H]3[C@@H]2CC[C@@]2(C)[C@H]3CC[C@@H]2[C@](C)(O)Cn2cc(C#N)cn2)C1 [Compound 19, 1-((S)-2-hydroxy-2-((3R,5S,8R,9R,10S,13S,14S,17S)-3-hydroxy-3-(methoxymethyl)-13-methylhexadecahydro-1H-cyclopenta[a]phenanthren-17-yl)propyl)-1H-pyrazole-4-carbonitrile]	< 100
CCOC[C@@]1(O)CC[C@@]2(C)[C@H](CC[C@@H]3[C@@H]2CC[C@@]2(C)[C@H]3CC[C@@H]2[C@](C)(O)Cn2cc(C#N)cn2)C1 [Compound 24, 1-((S)-2-((3R,5R,8R,9S,10S,13S,14S,17S)-3-(ethoxymethyl)-3-hydroxy-10,13-dimethylhexadecahydro-1H-cyclopenta[a]phenanthren-17-yl)-2-hydroxypropyl)-1H-pyrazole-4-carbonitrile]	< 100
CC[C@]12CC[C@@](C)(O)C[C@H]1CC[C@H]1[C@@H]3CC[C@H]([C@@](C)(Cn4cc(C#N)cn4)OC)[C@@]3(C)CC[C@@H]12 [Compound 5, 1-((S)-2-((3R,5R,8S,9S,10S,13S,14S,17S)-10-ethyl-3-hydroxy-3,13-dimethylhexadecahydro-1H-cyclopenta[a]phenanthren-17-yl)-2-methoxypropyl)-1H-pyrazole-4-carbonitrile]	< 100
CCC[C@@]1(O)CC[C@H]2[C@H](CC[C@@H]3[C@@H]2CC[C@@]2(C)[C@H]3CC[C@@H]2[C@](C)(O)Cn2cc(C#N)cn2)C1 [Compound 7, 1-((S)-2-hydroxy-2-((3R,5R,8R,9R,10S,13S,14S,17S)-3-hydroxy-13-methyl-3-propylhexadecahydro-1H-cyclopenta[a]phenanthren-17-yl)propyl)-1H-pyrazole-4-carbonitrile]	< 100
CC[C@@]1(O)CC[C@H]2[C@H](CC[C@@H]3[C@@H]2CC[C@@]2(C)[C@H]3CC[C@@H]2[C@@](C)(O)Cn2cc(C#N)cn2)C1 [Compound 12, 1-((R)-2-((3R,5R,8R,9R,10S,13S,14S,17S)-3-ethyl-3-hydroxy-13-methylhexadecahydro-1H-cyclopenta[a]phenanthren-17-yl)-2-hydroxypropyl)-1H-pyrazole-4-carbonitrile]	100 to 1000
C[C@@]1(O)CC[C@H]2[C@H](CC[C@@H]3[C@@H]2CC[C@@]2(C)[C@H]3CC[C@@H]2[C@](C)(O)Cn2cc(C#N)cn2)C1 [Compound 2, 1-((S)-2-hydroxy-2-((3R,5R,8R,9R,10S,13S,14S,17S)-3-hydroxy-3,13-dimethylhexadecahydro-1H-cyclopenta[a]phenanthren-17-yl)propyl)-1H-pyrazole-4-carbonitrile]	< 100
CCOC[C@@]1(O)CC[C@@]2(C)[C@H](CC[C@@H]3[C@@H]2CC[C@@]2(C)[C@H]3CC[C@@H]2[C@@](C)(O)Cn2cc(C#N)cn2)C1 [Compound 25, 1-((R)-2-((3R,5R,8R,9S,10S,13S,14S,17S)-3-(ethoxymethyl)-3-hydroxy-10,13-dimethylhexadecahydro-1H-cyclopenta[a]phenanthren-17-yl)-2-hydroxypropyl)-1H-pyrazole-4-carbonitrile]	100 to 1000
COC[C@@]1(O)CC[C@H]2[C@H](CC[C@@H]3[C@@H]2CC[C@@]2(C)[C@H]3CC[C@@H]2[C@@](C)(O)Cn2cc(C#N)cn2)C1 [Compound 30, 1-((R)-2-hydroxy-2-((3R,5R,8R,9R,10S,13S,14S,17S)-3-hydroxy-3-(methoxymethyl)-13-methylhexadecahydro-1H-cyclopenta[a]phenanthren-17-yl)propyl)-1H-pyrazole-4-carbonitrile]	100 to 1000
CC[C@@]1(O)CC[C@H]2[C@H](CC[C@@H]3[C@@H]2CC[C@@]2(C)[C@H]3CC[C@@H]2[C@](C)(O)Cn2cc(C#N)cn2)C1 [Compound 11, 1-((S)-2-((3R,5R,8R,9R,10S,13S,14S,17S)-3-ethyl-3-hydroxy-13-methylhexadecahydro-1H-cyclopenta[a]phenanthren-17-yl)-2-hydroxypropyl)-1H-pyrazole-4-carbonitrile]	< 100
COC[C@H]1C[C@H]2[C@H](CC[C@@H]3[C@@H]2CC[C@@]2(C)[C@H]3CC[C@@H]2[C@@](C)(O)Cn2cc(C#N)cn2)C[C@]1(C)O [Compound 59, 1-((R)-2-hydroxy-2-((2R,3S,5R,8R,9R,10S,13S,14S,17S)-3-hydroxy-2-(methoxymethyl)-3,13-dimethylhexadecahydro-1H-cyclopenta[a]phenanthren-17-yl)propyl)-1H-pyrazole-4-carbonitrile]	100 to 1000
COC[C@@]1(O)CC[C@H]2[C@@H](CC[C@@H]3[C@@H]2CC[C@@]2(C)[C@H]3CC[C@@H]2[C@@](C)(O)Cn2cc(C#N)cn2)C1 [Compound 20, 1-((R)-2-hydroxy-2-((3R,5S,8R,9R,10S,13S,14S,17S)-3-hydroxy-3-(methoxymethyl)-13-methylhexadecahydro-1H-cyclopenta[a]phenanthren-17-yl)propyl)-1H-pyrazole-4-carbonitrile]	100 to 1000
CCC[C@@]1(O)CC[C@@]2(CC)[C@H](CC[C@H]3[C@@H]4CC[C@H]([C@](C)(O)Cn5cc(C#N)cn5)[C@@]4(C)CC[C@@H]32)C1 [Compound 44, 1-((S)-2-((3R,5R,8S,9S,10S,13S,14S,17S)-10-ethyl-3-hydroxy-13-methyl-3-propylhexadecahydro-1H-cyclopenta[a]phenanthren-17-yl)-2-hydroxypropyl)-1H-pyrazole-4-carbonitrile]	< 100
CC[C@@]1(O)CC[C@H]2[C@@H](CC[C@@H]3[C@@H]2CC[C@@]2(C)[C@H]3CC[C@@H]2[C@](C)(O)Cn2cc(C#N)cn2)C1 [Compound 13, 1-((S)-2-((3R,5S,8R,9R,10S,13S,14S,17S)-3-ethyl-3-hydroxy-13-methylhexadecahydro-1H-cyclopenta[a]phenanthren-17-yl)-2-hydroxypropyl)-1H-pyrazole-4-carbonitrile]	100 to 1000
COC[C@@]1(O)CC[C@H]2[C@H](CC[C@@H]3[C@@H]2CC[C@]2(C)[C@@H](C(F)(F)Cn4cc(C#N)cn4)CC[C@@H]32)C1 [Compound 38, 1-(2,2-difluoro-2-((3R,5R,8R,9R,10S,13S,14S,17S)-3-hydroxy-3-(methoxymethyl)-13-methylhexadecahydro-1H-cyclopenta[a]phenanthren-17-yl)ethyl)-1H-pyrazole-4-carbonitrile]	< 100
